# Paper PMC8424300, “Identification of novel microtubule inhibitors effective in fission yeast and human cells and their effects on breast cancer cell lines” (Open Biology, 2021)
# How the values were obtained:
# [1] = biological target: T1, porcine brain tubulin heterodimer (Sus scrofa, UniProt P02550+P02554); test: In vitro tubulin polymerization assay; type: biochemical; conditions: IC50 of tubulin polymerization
# T1 construct: highly purified porcine brain tubulin heterodimer; purchased Cytoskeleton T240 (kit BK011P); host or cells: porcine brain tissue
# Protocol: To determine whether the 12 compounds affected mitotic spindle organization by directly interfering with tubulin polymerization, we performed in vitro tubulin polymerization assays. […] Tubulin polymerization was monitored every 1 min by measuring fluorescence absorbance at 340 nm for 1 h.
# Figure 3. […] Tubulin was incubated with 5 µM of the compounds and DMSO for 60 min at 37°C. The fluorescence increase was monitored every minute at 340 nm. […] (b). […] Nocodazole (NOC) was used as the control. (c). […] (d) The same experiment as (c) but carried out at a different time.
# The Tubulin Polymerization HTS Assay Kit (Cytoskeleton, BK011P) was used according to the manufacturer's instructions. All components were added into a 96-well microtiter plate (Corning Costar, cat. no. 3686), then the tubulin reaction mixture was quickly added to the wells, and tubulin polymerization was initiated and monitored every 1 min at 37°C for 1 h by recording fluorescence of excitation wavelength at 340 nm and emission at 450 nm. The tubulin reaction mixture was composed of 80 mM PIPES (pH 6.9), and 1 mM MgCl2, 1 mM EGTA, 1 mM GTP and 2 mg ml^−1 of highly purified porcine brain tubulin heterodimer (Cytoskeleton, cat. no. T240).
# MDR-sup fission yeast = test: Phenotypic assay of microtubule organization in MDR-sup strain expressing GFP-atb2; type: cell-based, Schizosaccharomyces pombe; conditions: 5 µM compound for 3 h, living cells
# Protocol: We have previously screened a collection of 10 371 small molecules to identify compounds that inhibit the growth of a multiple-drug-sensitive fission yeast strain (MDR-sup). We selected 248 compounds (2.4% of the total) that inhibited fission yeast cell growth rate by at least 50% (figure 1a) and subsequently conducted a phenotypic screen of these to identify drugs that affect microtubule organization (figure 1b). After the MDR-sup cells were treated with 5 µM of each compound for 3 h, microtubules were monitored using GFP tagged α-tubulin Atb2 and live-cell fluorescence microscopy. In untreated interphase cells, microtubules form long cytoplasmic arrays that run parallel to the long cellular axis, and in mitotic cells, microtubules form a bipolar spindle in the nucleus and the cytoplasmic microtubules disappear (figure 1c(i), arrow). […] This screen identified 34 compounds that induced cytological phenotypes indicative of defects in microtubule organization or function.
# Figure 1. Phenotypic screening in MDR-sup fission yeast (a). Growth assay screening using MDR-sup strain. The optical density was measured with 20 µM of each compound and 248 compounds that gave at least 50% growth inhibition were used for further phenotyping marked by the red lines. Growth was normalized to DMSO-treated cells. (b) Schematic representation of the screening workflow. (c) Examples of the phenotypic assay using L1, P2 and B8 in the MDR-sup strain expressing GFP-atb2 (tubulin) are shown. Cells were incubated in 5 µM compound for 3 h and atb2 signals were detected in living cells. (i) Cells in absence of any compound. In interphase cells, α-tubulin Atb2 protein was detected in the nucleus and interphase microtubules, while mitotic spindles were detected in mitotic cells (arrows). (ii) In the presence of L1, microtubules were depolymerized and tubulin signals were detected distributed throughout the nucleus. (iii) In the presence of P2, short spindles were detected but anaphase spindles were not. (iv) In the presence of B8, interphase microtubules were not detected, while, dots were detected. […]
# CAL51 cells = test: Clonogenic (colony-forming) assay; type: cell-based, human; conditions: 12 h exposure, 9 days growth
# Protocol: Finally, a clonogenic assay was used to further evaluate the synergy effects between the L1 and Plk1 inhibitors to inhibit colony formation of breast cancer CAL51 cells after a 12 h drug exposure. The percentages of colony formation of cells treated with 0.1 nM BI2536 alone and 0.5 µM L1 alone were 89% and 67%, respectively, while cells treated with both 0.1 nM BI2536 and 0.5 µM L1 together were 2% (figure 10) indicating strong synergetic effects in colony formation.
# Figure 10. Quantification of the colony formation experiments (n = 3) after a 12 h exposure. CAL51 cells were treated with vehicle control, 0.1 nM BI2536, 0.5 µM L1 or 0.1 nM BI2536 and 0.5 µM L1 for 12 h. Cells were grown for 9 days in fresh media after 12 h exposure. Mean ± s.e.m. (n = 3) is shown.
# CAL51 cells were plated at a density of 200 cells per 60 mm tissue culture dish. After 24 h, they were treated with vehicle (DMSO), 0.1 nM BI2538, 0.5 µM L1 or the combination of 0.1 nM BI2538 and 0.5 µM L1, respectively, for 12 h. After an exposure, the cells were washed with warm sterile PBS, and incubated for additional 9 days in fresh media. After the incubation, cells were fixed and stained with a 20% MeOH: 0.01% crystal violet solution for 30 min. Colonies were counted using a stereomicroscope in three independent experiments.
# [2] = biological target: T2, tubulin (colchicine-binding site) (Sus scrofa, UniProt P02550+P02554); test: Fluorescence-based colchicine displacement assay; conditions: for fluorescence of the colchicine-tubulin complex: 2 µM tubulin + 2 µM colchicine set 100%
# T2 construct: purchased Cytoskeleton, Inc
# Protocol: Figure 6. […] Each value represents the mean ± s.e.m. of three independent experiments.
# Reaction mixtures were excited at 380 nm and the emission was measured at 438 nm. Values were exported as Excel files and graphs were generated in Prism V9 GraphPad.
# T2 sequence (P02554 whole entry): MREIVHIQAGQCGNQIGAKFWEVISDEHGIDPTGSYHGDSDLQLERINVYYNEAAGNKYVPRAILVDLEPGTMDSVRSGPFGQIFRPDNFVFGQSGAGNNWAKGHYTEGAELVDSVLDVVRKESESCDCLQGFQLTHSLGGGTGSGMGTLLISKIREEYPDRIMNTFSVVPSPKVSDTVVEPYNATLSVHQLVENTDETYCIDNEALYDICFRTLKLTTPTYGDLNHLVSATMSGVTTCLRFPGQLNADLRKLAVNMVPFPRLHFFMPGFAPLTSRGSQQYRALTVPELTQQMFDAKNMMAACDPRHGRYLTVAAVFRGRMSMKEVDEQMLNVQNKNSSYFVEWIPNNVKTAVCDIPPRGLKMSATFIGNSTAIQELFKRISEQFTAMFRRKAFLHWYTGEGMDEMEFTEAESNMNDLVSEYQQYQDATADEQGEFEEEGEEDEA
# T2 sequence (P02550 whole entry): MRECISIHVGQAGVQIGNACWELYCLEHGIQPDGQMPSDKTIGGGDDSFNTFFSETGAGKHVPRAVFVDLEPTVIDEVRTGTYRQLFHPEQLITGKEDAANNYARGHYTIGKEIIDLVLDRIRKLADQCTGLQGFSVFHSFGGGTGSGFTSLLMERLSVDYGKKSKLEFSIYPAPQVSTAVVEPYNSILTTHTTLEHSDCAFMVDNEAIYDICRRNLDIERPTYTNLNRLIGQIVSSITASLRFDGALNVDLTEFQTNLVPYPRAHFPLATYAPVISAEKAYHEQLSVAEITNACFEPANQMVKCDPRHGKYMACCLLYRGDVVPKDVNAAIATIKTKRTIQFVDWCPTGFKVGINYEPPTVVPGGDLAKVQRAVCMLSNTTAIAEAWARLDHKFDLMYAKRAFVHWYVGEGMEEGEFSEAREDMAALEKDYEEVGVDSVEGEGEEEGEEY
# T1 sequence (P02554 whole entry): as the sequence (P02554 whole entry) above
# T1 sequence (P02550 whole entry): as the sequence (P02550 whole entry) above
smiles,measurement,setting,value
COc1cc(Br)cc2c1OC(c1ccc3c(c1)OCO3)C([N+](=O)[O-])=C2 (centres unmarked) [L1],IC50,"[1]; figure 3c, 37°C, 1 h",470 nM
same,IC50,"[1]; figure 3d, same experiment carried out at a different time",460 nM
same,microtubule phenotype (GFP-atb2 tubulin signal),MDR-sup fission yeast,"microtubules are undetectable, and α-tubulin accumulates in the nucleus"
same,percentage of colony formation,CAL51 cells; 0.1 nM BI2536 and 0.5 µM L1 together,2%
same,percentage of colony formation,CAL51 cells; 0.5 µM L1 alone,67%
same,fluorescence of the colchicine-tubulin complex,[2]; 5 µM L1,87%
same,fluorescence of the colchicine-tubulin complex,[2]; 10 µM L1,71%
same,colchicine-tubulin interaction,[2]; 50 µM L1,abolished the interaction between colchicine and tubulin complex completely
